Measurements as given in EP0170180A1, “Substituted guanidinobenzoic-acid phenyl esters, process for their production and their use as pharmaceutical preparations” (SCHERING AKTIENGESELLSCHAFT, priority 1984, dated 1986).
Counter-ions that a name gives are not always drawn.

How the values were obtained:
Humanakrosin [1] = biological target: T1, Humanakrosin (Homo sapiens, UniProt P10323); test: Acrosin (human) assay: inhibition of isolated human acrosin; format: biochemical; details: Substrat: Benzoyl-L-arginyleth.-ester; read-out: I50
T1 construct: endogenous in cells; host or cells: intact human spermatozoa (Humansperma)
Source text: Dieser Test stellt das eigentliche Primärscreening dar. Er gibt einen Anhaltspunkt über die inhibitorische Effektivität einer Verbindung am Enzym (Humanakrosin) selbst, erlaubt aber noch keine Aussage über die biologische Effektivität (d.h. Hemmung von Akrosin im intakten Spermium sowie kontrazeptive Wirksamkeit) der untersuchten Verbindungen.
Das durch eine saure Extraktion aus Humansperma gewonnene Enzym Akrosin wird mit verschiedenen Konzentrationen des potentiellen Inhibitors inkubiert, und es wird diejenige Konzentration bestimmt, die zu einer 50 %igen Hemmung der Akrosinaktivität führt. Die […] Akrosin spaltet physiologischerweise bevorzugt Arginin- und Lysin-Gruppen. Deshalb wird für die in vitro-Untersuchung zur Aktivitätsbestimmung von Akrosin ein Benzoyl-Arginin-Äthylester als Substrat verwendet.

Humanakrosin [2] = biological target: T1, Humanakrosin; test: Gelatinolysis test: acrosin inhibition in intact human spermatozoa (halo formation, semiquantitative); format: cell-based; details: Humansperma preincubated with inhibitor
Source text: Dieser Test ist ebenfalls als Bestandteil des Primärscreenings anzusehen. Für die erwünschte kontrazeptive Wirkung eines Akrosininhibitors ist es - neben der eigentlichen Akrosinhemmung am isolierten Enzym - von essentieller Bedeutung, daß ein solcher Inhibitor in der Lage ist, das Plasmalemm und die äußere akrosomale Membran eines intakten Spermiums zu durchdringen, da Akrosin an der inneren akrosomalen Membran lokalisiert ist.
Als besonders geeignet für die Untersuchung dieser speziellen Fragestellung hat sich das Gelatinolyse-Modell nach P. Gaddum und R.Z. Blandau (Science 170: 749 - 751), modifiziert nach W.B. Schill (Int. J. Andrology 4: 25 - 38) und nach eigenen Ausarbeitungen erwiesen. Bei dieser Methode wird mit unbelichteten, fixierten und mit Methylenblau gefärbten Filmplatten für die Autoradiographie gearbeitet, deren Gelatineschicht durch die lytische Aktivität von Akrosin aufgelöst wird. Als Folge bilden sich um die Spermienköpfe gut sichtbare, weite Höfe (sog. Halo-Bildung/ Lysishof). Bei einer Hemmung von Akrosin unterbleibt die Ausbildung dieser Höfe.
Um die Penetrierfähigkeit eines erwiesenen Akrosininhibitors und damit die Hemmung von Akrosin am intakten Spermium zu untersuchen, wird Humansperma mit mehreren Konzentrationen des Inhibitors präinkubiert. […]

Kaninchen = test: In vivo fertilisation (rabbit) after artificial insemination of preincubated sperm; details: sperm preincubated with 500 µg/ml, 36 h after insemination; for % geteilt: fertility rate; for geteilt: number of divided oocytes; for nicht geteilt: number of undivided oocytes
Source text: Dieser Test ermöglicht Aussagen zur kontrazeptiven Effektivität unter in-vivo-Bedingungen:
Kaninchensperma, das mit Hilfe einer künstlichen Vagina gewonnen wird, wird mit dem zu untersuchenden Akrosininhibitor präinkubiert. Anschließend werden zur Induktion einer Superovulation mit PMS (pregnant mare serum) vorbehandelte Kaninchenweibchen mit dem vorbehandelten Sperma artifiziell inseminiert. Zur Auslösung der […] erhalten sie abschließend HCG (human chorionic gonadotropin).
36 Stunden später werden die Tiere getötet, die Ovidukte und Uteri entnommen und gespült, um die frühen Embryonen bzw. ungeteilten Oocyten zu gewinnen und anhand deren Anzahl die Fertilisationsrate zu bestimmen.

Maussperma = test: In vitro fertilisation (mouse); format: cell-based, Maus; details: for % Fertilisation: after 24 h; for Anzahl 2-Zellen-Embryos: counted after 24 h
Source text: Dieser Test erlaubt eine erste Überprüfung der kontrazeptiven Effektivität sowie eine Überprüfung des Wirkprinzips per se:
In einem Mediumtropfen nach Brinster, Whitten und Whittingham, der den Inhibitor enthält, werden zunächst die durch Superovulation gewonnenen Oocyten überführt. Anschließend wird ein Aliquot des unbehandelten Maussperma hinzupipettiert. Die Konzentrationen des Inhibitors werden so gewählt, daß keine Hemmung der Motilität vorliegt. 24 Stunden später wird die Anzahl der geteilten und nicht geteilten Oocyten und damit die Fertilitätsrate bestimmt.
Es wird also überprüft, ob der zu untersuchende Akrosininhibitor, appliziert in einem System, in dem es zum unmittelbaren Kontakt zwischen Oocyte und Spermium kommt, eine Fertilisation hemmen kann - ohne daß eine Hemmung der Motilität der Spermien vorliegt.

T1 sequence (P10323 20-421): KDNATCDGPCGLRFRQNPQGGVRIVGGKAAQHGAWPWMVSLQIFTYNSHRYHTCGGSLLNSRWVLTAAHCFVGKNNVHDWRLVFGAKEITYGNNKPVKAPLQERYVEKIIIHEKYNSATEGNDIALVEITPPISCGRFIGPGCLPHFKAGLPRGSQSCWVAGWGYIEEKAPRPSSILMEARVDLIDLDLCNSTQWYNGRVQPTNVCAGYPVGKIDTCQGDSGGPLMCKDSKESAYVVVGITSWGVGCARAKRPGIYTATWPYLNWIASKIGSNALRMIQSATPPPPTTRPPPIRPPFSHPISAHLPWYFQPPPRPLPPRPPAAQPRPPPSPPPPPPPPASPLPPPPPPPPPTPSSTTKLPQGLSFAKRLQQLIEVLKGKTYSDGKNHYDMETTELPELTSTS

With `COC(=O)c1ccccc1OC(=O)c1ccc(NC(=N)N)cc1` [Verbindung 1, 4-Guanidinobenzoesäure-(2-methoxycarbonylphenyl)-ester Hydrochlorid, reference compound] the IC50 (Humanakrosin [1]) was 733 nM, the “Gelatinolyse: Hemmung der Akrosinaktivität” value (Humanakrosin [2]; 1 µg/ml) was “++ bis +++” and the “Gelatinolyse: Hemmung der Akrosinaktivität” value (Humanakrosin [2]; 10 µg/ml) was “+ bis ++”. For the same compound, the “% geteilt” value (Kaninchen) was 51%, the geteilt (Kaninchen) was 88 and the nicht geteilt (Kaninchen) was 83. The “% Fertilisation” value (Maussperma; 5 ug/ml) was 78% and the “Anzahl 2-Zellen-Embryos” value (Maussperma; 5 ug/ml) was 195.
For `N#Cc1ccccc1OC(=O)c1ccc(NC(=N)N)cc1` [Verbindung 2, 4-Guanidinobenzoesäure-(2-cyanophenyl)-ester Hydrochlorid], the IC50 (Humanakrosin [1]) was 40 nM, the “% geteilt” value (Kaninchen) was 1% and the geteilt (Kaninchen) was 2. The nicht geteilt (Kaninchen) was 158, the “% Fertilisation” value (Maussperma; 5 ug/ml) was 59% and the “Anzahl 2-Zellen-Embryos” value (Maussperma; 5 ug/ml) was 134. For the same compound, the “% Fertilisation” value (Maussperma; 50 ug/ml) was 7% and the “Anzahl 2-Zellen-Embryos” value (Maussperma; 50 ug/ml) was 22.
In the case of `CCOC(=O)c1cccc(OC(=O)c2ccc(NC(=N)N)cc2)c1` [Verbindung 3, 4-Guanidinobenzoesäure-(3-ethoxycarbonylphenyl)-ester Hydrochlorid], the IC50 (Humanakrosin [1]) is reported as 200 nM and the “% geteilt” value (Kaninchen) is reported as 1%.
For `COC(=O)c1cccc(OC(=O)c2ccc(NC(=N)N)cc2)c1` [Verbindung 5, 4-Guanidinobenzoesäure-(3-methoxycarbonylphenyl)-ester Hydrochlorid], the IC50 (Humanakrosin [1]) was 550 nM.
`N=C(N)Nc1ccc(C(=O)Oc2cccc(C(N)=O)c2)cc1` [Verbindung 6, 4-Guanidinobenzoesäure-(3-carbamoylphenyl)-ester Hydrochlorid] showed an IC50 (Humanakrosin [1]) of 320 nM.
